The values that follow come from patent US11918352B2, “Non-invasive determination of a physiological state of interest in a subject” (ISBRG CORP., priority 2018, dated 2024).

For series [1] the following is noted: cited from earlier work.
Series [2] can be described thus: Analyte composition of a subject after consumption (Table 2, simplified illustrative data set). In kind it is in vivo, human. The following applies: for Analyte level, intoxicated state: 1 hr after consumption, THC induced intoxicated state; for Analyte level, post-intoxicated state: 36 hr after consumption. From the text: For example, which is not to be considered limiting, in a THC induced intoxicated state, a subject may comprise the analyte composition presented in Table 1. It is to be understood that this table presents a simplified data set to exemplify the method described herein. Other analytes, which may include known analytes or ghost analytes, are indicated as analytes A, B . . . C; A′, B′, . . . C′; A″, B″ . . . C″. These other analytes may increase or decrease in response to, or that are correlated with, the physiological condition and they may be included in this analysis.
In this example, the result may be considered positive for a THC-induced intoxicated state if the Index is greater than a preset value which is determined based on an analysis of the analytes determined in subjects who were exposed to a control treatment, or a range of THC under controlled conditions, for example an Index value of (2+A)/(C+ . . . +C) may be an indication of a positive result for the state of THC-induced intoxication.

Consider `CCCCCc1cc(O)c2c(c1)OC(C)(C)[C@@H]1CCC(C)=C[C@@H]21` [THC, delta-9-tetrahydrocannabinol], for which, in series [1] (chronic users of marijuana, detected for 24 to 48 hours or longer, serum), the “Residual THC in serum” value was 1.0 to 6.4 ng/mL. For the same compound, in series [1] (chronic users of marijuana, detected for 24 to 48 hours or longer, whole blood), the “Residual THC in whole blood” value was 0.5 to 3.2 ng/mL. In series [1] (smoked marijuana, after inhaling), the “Time of THC peak” value is “first few minutes”. Moreover, the THC level remaining in series [1] (smoked marijuana, for 8 hours or more) was 1 to 2 ng/mL. In series [2], the “Analyte level, intoxicated state” value was 78 ng/mL and the “Analyte level, post-intoxicated state” value was 8 ng/mL.
Consider `CCCCCc1cc(O)c2c(c1)OC(C)(C)C1CCC(CO)=CC21` (stereo not shown) [11-OH-THC, 11-hydroxy THC], for which, in series [2], the “Analyte level, intoxicated state” value was 5 ng/mL and the “Analyte level, post-intoxicated state” value worked out at 2 ng/mL.
The matching figures for `CCCCCc1cc(O)c2c(c1)OC(C)(C)[C@@H]1CCC(C(=O)O)=C[C@@H]21` [THC-COOH, 11-nor-9-carboxy-THC]: 5 ng/mL and 11 ng/mL.
